One assay has as its system MV4;11 cells. The experiment in a line: Cell viability assay (CellTiter-Glo) in MV4;11 cells, alone or with gilteritinib. The class given is cell-based. Conditions: Homo sapiens, read-out: MV4. A general note: In ATP-based viability assays light output follows the ATP content of the culture.
The subject of the next assay is MOLM-13 cells. In words: Cell viability assay (CellTiter-Glo) in MOLM-13 cells, alone or with gilteritinib. It is filed as cell-based. Conditions: Homo sapiens.
Setting [1] is: MV4-11, 72 h, MV4;11 cells, compound alone (without gilteritinib), three days, CellTiter-Glo, 11 IC50.
Where [2] appears, read: MV4-11, 72 h, MV4;11 cells, with gilteritinib 10 nM, three days, CellTiter-Glo, 11 IC50 gilteritinib.
[3] abbreviates: MOLM-13, 72 h, MOLM-13 cells, compound alone (without gilteritinib), three days, CellTiter-Glo, read-out: MOLM-13 IC50.
[4] abbreviates: MOLM-13, 72 h, MOLM-13 cells, with gilteritinib 20 nM, three days, CellTiter-Glo, read-out: MOLM-13 IC50 gilteritinib.
The mark [5] stands for this setting: MV4-11, 72 h, MV4;11 cells, compound with gilteritinib 10 nM, three days, CellTiter-Glo, 11 IC50 gilteritinib.
Where [6] appears, read: MOLM-13, 72 h, MOLM-13 cells, compound with gilteritinib 20 nM, three days, CellTiter-Glo, read-out: MOLM-13 IC50 gilteritinib.

Where two headings read alike, the source gives them in different places.

For the compound `O=C1CCC(N2C(=O)c3ccc(NCCCC(=O)N4CCC(c5ccccc5)CC4)cc3C2=O)C(=O)N1` (centres unmarked) [GS-148, 2-(2,6-Dioxopiperidin-3-yl)-5-((4-oxo-4-(4-phenylpiperidin-1-yl)butyl)amino)isoindoline-1,3-dione], the IC50 is above 1000 nM with MV4;11 cells (72 h, MV4;11 cells, compound alone (without gilteritinib), three days, CellTiter-Glo, 11 IC50); 100 to 1000 nM with MV4;11 cells (72 h, MV4;11 cells, with gilteritinib 10 nM, three days, CellTiter-Glo, 11 IC50 gilteritinib); 100 to 1000 nM in the assay with MOLM-13 cells (72 h, MOLM-13 cells, compound alone (without gilteritinib), three days, CellTiter-Glo, read-out: MOLM-13 IC50); 10 to 100 nM in the assay on MOLM-13 cells (72 h, MOLM-13 cells, with gilteritinib 20 nM, three days, CellTiter-Glo, read-out: MOLM-13 IC50 gilteritinib).

`Cc1cccc(-c2cn([C@H]3C[C@H](CNc4ccc5c(c4)C(=O)N(C4CCC(=O)NC4=O)C5=O)C3)nc2C2CCOCC2)n1` (stereo partly drawn) [GS-071, 2-(2,6-Dioxopiperidin-3-yl)-5-(((trans-3-(4-(6-methylpyridin-2-yl)-3-(tetrahydro-2H-pyran-4-yl)-1H-pyrazol-1-yl)cyclobutyl)methyl)amino)isoindoline-1,3-dione]: the IC50 in the assay on MV4;11 cells (setting [1]) is above 1000 nM; with MV4;11 cells (setting [2]), 10 to 100 nM; in the assay on MOLM-13 cells (setting [3]), above 1000 nM; in the assay with MOLM-13 cells (setting [4]), 10 to 100 nM.

As for `O=C1CCC(N2C(=O)c3ccc(NCCC[C@H]4C[C@H](n5cc(-c6cccc(N7CCOCC7)n6)cn5)C4)cc3C2=O)C(=O)N1` (stereo partly drawn) [GS-217, 2-(2,6-Dioxopiperidin-3-yl)-5-((3-(trans-3-(4-(6-morpholinopyridin-2-yl)-1H-pyrazol-1-yl)cyclobutyl)propyl)amino)isoindoline-1,3-dione], the IC50 with MV4;11 cells (setting [1]) was 10 to 100 nM; with MV4;11 cells (setting [2]), below 10 nM; in the assay with MOLM-13 cells (setting [3]) it was 100 to 1000 nM; with MOLM-13 cells (setting [4]) it was below 10 nM.

As to `CN1CCN(c2cccc3nc(-c4cn([C@H]5C[C@H](CNc6ccc7c(c6)C(=O)N(C6CCC(=O)NC6=O)C7=O)C5)nc4C4CC4)cnc23)CC1` (stereo partly drawn) [GS-267, 5-(((trans-3-(3-Cyclopropyl-4-(5-(4-methylpiperazin-1-yl)quinoxalin-2-yl)-1H-pyrazol-1-yl)cyclobutyl)methyl)amino)-2-(2,6-dioxopiperidin-3-yl)isoindoline-1,3-dione], the IC50 with MV4;11 cells (setting [1]), with MV4;11 cells (setting [2]), in the assay with MOLM-13 cells (setting [3]) and in the assay with MOLM-13 cells (setting [4]) was below 10 nM each time.

In the case of `O=C1CCC(N2Cc3cc(CNC(=O)C45CC(C(=O)N6CCC(n7cc(-c8cnc9ccccc9n8)cn7)CC6)(C4)C5)ccc3C2=O)C(=O)N1` (centres unmarked) [GS-120, N-((2-(2,6-dioxopiperidin-3-yl)-1-oxoisoindolin-5-yl)methyl)-3-(4-(4-(quinoxalin-2-yl)-1H-pyrazol-1-yl)piperidine-1-carbonyl)bicyclo[1.1.1]pentane-1-carboxamide], the IC50 is 10 to 100 nM in the assay on MV4;11 cells (setting [1]), below 10 nM in the assay with MV4;11 cells (setting [2]), 10 to 100 nM in the assay on MOLM-13 cells (setting [3]) and below 10 nM in the assay on MOLM-13 cells (setting [4]).

Regarding `O=C(COc1ccc2c(c1)CN(C1CCC(=O)NC1=O)C2=O)NCCC(=O)N1CCC(n2cc(-c3cnc4cccc(Br)c4n3)cn2)CC1` (centres unmarked) [GS-022, N-(3-(4-(4-(8-bromoquinoxalin-2-yl)-1H-pyrazol-1-yl)piperidin-1-yl)-3-oxopropyl)-2-((2-(2,6-dioxopiperidin-3-yl)-1-oxoisoindolin-5-yl)oxy)acetamide], the IC50 was determined as 60 nM in the assay with MV4;11 cells (MV4-11, 72 h, MV4;11 cells, with 10 nM gilteritinib, 3 days, CellTiter-Glo, 11 IC50 gilteritinib); 293 nM in the assay with MV4;11 cells (MV4-11, 72 h, MV4;11 cells, without gilteritinib, 3 days, CellTiter-Glo, 11 IC50); 106 nM in the assay with MOLM-13 cells (MOLM-13, 72 h, MOLM-13 cells, with 20 nM gilteritinib, 3 days, CellTiter-Glo, read-out: MOLM-13 IC50 gilteritinib); 875 nM in the assay on MOLM-13 cells (MOLM-13, 72 h, MOLM-13 cells, without gilteritinib, 3 days, CellTiter-Glo, read-out: MOLM-13 IC50).

On to `Cc1cccnc1-c1cnn([C@H]2C[C@H](CCCNc3ccc4c(c3)C(=O)N(C3CCC(=O)NC3=O)C4=O)C2)c1` (stereo partly drawn) [GS-602, 2-(2,6-Dioxopiperidin-3-yl)-5-((3-(trans-3-(4-(3-methylpyridin-2-yl)-1H-pyrazol-1-yl)cyclobutyl)propyl)amino)isoindoline-1,3-dione], for which the IC50 with MV4;11 cells (setting [1]) is 10 to 100 nM; in the assay on MV4;11 cells (setting [5]), below 10 nM; in the assay with MOLM-13 cells (setting [3]) it was 100 to 1000 nM; in the assay with MOLM-13 cells (setting [6]), 10 to 100 nM.

Consider `O=C1CCC(N2Cc3c(Nc4ccnc(Nc5cccc(-n6cc(-c7cnc8ccccc8n7)cn6)c5)n4)cccc3C2=O)C(=O)N1` (centres unmarked) [GS-084, 3-(1-Oxo-4-((2-((3-(4-(quinoxalin-2-yl)-1H-pyrazol-1-yl)phenyl)amino)pyrimidin-4-yl)amino)isoindolin-2-yl)piperidine-2,6-dione], for which the IC50 in the assay with MV4;11 cells (setting [1]), with MV4;11 cells (setting [2]), in the assay on MOLM-13 cells (setting [3]) and in the assay with MOLM-13 cells (setting [4]) was above 1000 nM throughout.

As for `O=C1CCC(N2Cc3c(Nc4cccc(Nc5cccc(N6CCC(n7cc(-c8cnc9ccccc9n8)cn7)CC6)c5)n4)cccc3C2=O)C(=O)N1` (centres unmarked) [GS-090, 3-(1-Oxo-4-((6-((3-(4-(4-(quinoxalin-2-yl)-1H-pyrazol-1-yl)piperidin-1-yl)phenyl)amino)pyridin-2-yl)amino)isoindolin-2-yl)piperidine-2,6-dione], the IC50 in the assay with MV4;11 cells (setting [1]) was 10 to 100 nM; in the assay on MV4;11 cells (setting [2]) it was below 10 nM; with MOLM-13 cells (setting [3]) it was 10 to 100 nM; with MOLM-13 cells (setting [4]), below 10 nM.

`O=C1CCC(N2C(=O)c3ccc(NCCC[C@H]4C[C@H](n5cc(-c6cccc(C7CC7)n6)cn5)C4)cc3C2=O)C(=O)N1` (stereo partly drawn) [GS-447, 5-((3-(trans-3-(4-(6-cyclopropylpyridin-2-yl)-1H-pyrazol-1-yl)cyclobutyl)propyl)amino)-2-(2,6-dioxopiperidin-3-yl)isoindoline-1,3-dione]: the IC50 was 10 to 100 nM with MV4;11 cells (setting [1]), below 10 nM in the assay with MV4;11 cells (setting [5]), 100 to 1000 nM with MOLM-13 cells (setting [3]) and 10 to 100 nM in the assay with MOLM-13 cells (setting [6]).

For the compound `O=C1CCC(N2C(=O)c3ccc(NCCCCCC(=O)N4CCC(c5cnc6ccccc6c5)CC4)cc3C2=O)C(=O)N1` (centres unmarked) [GS-481, 2-(2,6-dioxopiperidin-3-yl)-5-((6-oxo-6-(4-(quinolin-3-yl)piperidin-1-yl)hexyl)amino)isoindoline-1,3-dione], the IC50 was below 10 nM in the assay on MV4;11 cells (setting [1]), below 10 nM with MV4;11 cells (setting [5]), 10 to 100 nM in the assay on MOLM-13 cells (setting [3]) and below 10 nM in the assay with MOLM-13 cells (setting [6]).

For `O=C1CCC(N2C(=O)c3ccc(NCCCNC(=O)N4CCC(n5cc(-c6cnc7ccccc7n6)cn5)CC4)cc3C2=O)C(=O)N1` (centres unmarked) [GS-132, N-(3-((2-(2,6-dioxopiperidin-3-yl)-1,3-dioxoisoindolin-5-yl)amino)propyl)-4-(4-(quinoxalin-2-yl)-1H-pyrazol-1-yl)piperidine-1-carboxamide], the IC50 in the assay with MV4;11 cells (setting [1]), in the assay with MV4;11 cells (setting [2]), in the assay with MOLM-13 cells (setting [3]) and in the assay on MOLM-13 cells (setting [4]) was below 10 nM in each case.

Turning to `CN1CCN(c2ccc3nc(-c4cnn([C@H]5C[C@@H](CCCNc6ccc7c(c6)C(=O)N(C6CCC(=O)NC6=O)C7=O)C5)c4)cnc3c2)CC1` (stereo partly drawn) [GS-412, 2-(2,6-dioxopiperidin-3-yl)-5-((3-(cis-3-(4-(6-(4-methylpiperazin-1-yl)quinoxalin-2-yl)-1H-pyrazol-1-yl)cyclobutyl)propyl)amino)isoindoline-1,3-dione], the IC50 lay within 100 to 1000 nM with MV4;11 cells (setting [1]), 10 to 100 nM with MV4;11 cells (setting [5]), 100 to 1000 nM with MOLM-13 cells (setting [3]) and 10 to 100 nM with MOLM-13 cells (setting [6]).

For the compound `O=C1CCC(N2Cc3c(CNC(=O)c4cccc(N5CCC(n6cc(-c7cnc8ccccc8n7)cn6)CC5)c4)cccc3C2=O)C(=O)N1` (centres unmarked) [GS-509, N-((2-(2,6-Dioxopiperidin-3-yl)-1-oxoisoindolin-4-yl)methyl)-3-(4-(4-(quinoxalin-2-yl)-1H-pyrazol-1-yl)piperidin-1-yl)benzamide], the IC50 in the assay on MV4;11 cells (MV4-11, 72 h, 11 IC50) is below 10 nM; with MV4;11 cells (MV4-11, 72 h, 11 IC50 gilteritinib), below 10 nM; in the assay on MOLM-13 cells (MOLM-13, 72 h, read-out: MOLM-13 IC50), below 10 nM; in the assay on MOLM-13 cells (MOLM-13, 72 h, read-out: MOLM-13 IC50 gilteritinib), below 10 nM.

In the case of `O=C1CCC(N2C(=O)c3ccc(NCCCCCCn4cc(-c5cnc6ccc(Br)cc6n5)cn4)cc3C2=O)C(=O)N1` (centres unmarked) [GS-503, 5-((6-(4-(7-Bromoquinoxalin-2-yl)-1H-pyrazol-1-yl)hexyl)amino)-2-(2,6-dioxopiperidin-3-yl)isoindoline-1,3-dione], the IC50 in the assay on MV4;11 cells (setting [1]) is 10 to 100 nM; with MV4;11 cells (setting [5]), below 10 nM; with MOLM-13 cells (setting [3]), 100 to 1000 nM; in the assay on MOLM-13 cells (setting [6]), 10 to 100 nM.

Consider `O=C1CCC(N2Cc3ccc(CCCCCC(=O)N4CCC(n5cc(-c6ccc7ccccc7n6)cn5)CC4)cc3C2=O)C(=O)N1` (centres unmarked) [GS-102, 3-(1-Oxo-6-(6-oxo-6-(4-(4-(quinolin-2-yl)-1H-pyrazol-1-yl)piperidin-1-yl)hexyl)isoindolin-2-yl)piperidine-2,6-dione], for which the IC50 is 10 to 100 nM in the assay with MV4;11 cells (setting [1]), below 10 nM in the assay with MV4;11 cells (setting [2]), 100 to 1000 nM in the assay on MOLM-13 cells (setting [3]) and 10 to 100 nM with MOLM-13 cells (setting [4]).

In the case of `O=C1CCC(N2C(=O)c3ccc(NC[C@H]4C[C@H](n5cc(-c6cc(F)ccn6)c(C6CC6)n5)C4)cc3C2=O)C(=O)N1` (stereo partly drawn) [GS-290, 5-(((trans-3-(3-Cyclopropyl-4-(4-fluoropyridin-2-yl)-1H-pyrazol-1-yl)cyclobutyl)methyl)amino)-2-(2,6-dioxopiperidin-3-yl)isoindoline-1,3-dione], the IC50 was above 1000 nM in the assay on MV4;11 cells (setting [1]), 10 to 100 nM in the assay with MV4;11 cells (setting [2]), above 1000 nM with MOLM-13 cells (setting [3]) and 100 to 1000 nM in the assay on MOLM-13 cells (setting [4]).
